Laboratory results published in patent US20210142173A1, “NETWORK-BASED DEEP LEARNING TECHNOLOGY FOR TARGET IDENTIFICATION AND DRUG REPURPOSING” (THE CLEVELAND CLINIC FOUNDATION, priority 2019, published 2021).
Where “and” joins values, the source holds several entries; their conditions need not be identical. Equal entries are not always repeated. Where two headings read alike, the source gives them in different places.

Tests used:
human RORγt = target: T1, human RORγt (Homo sapiens, UniProt P51449); assay: Cell-based GAL4-RORγt luciferase reporter assay in HEK293T cells; details: for inhibition at 10 µM: HEK-293T
T1 construct: expressed in transfected cells; host or cells: HEK293T
T1 sequence (P51449 269-508 limits assumed): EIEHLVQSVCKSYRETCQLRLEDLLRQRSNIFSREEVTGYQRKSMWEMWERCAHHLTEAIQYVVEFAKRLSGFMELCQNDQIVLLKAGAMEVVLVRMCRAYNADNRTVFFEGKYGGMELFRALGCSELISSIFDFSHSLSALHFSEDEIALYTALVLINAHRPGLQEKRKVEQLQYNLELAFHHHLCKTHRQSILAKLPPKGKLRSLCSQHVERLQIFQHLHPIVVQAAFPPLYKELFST
Experimental: FIG. 7A is a graph showing the inhibitory rate of various drugs as predicted by an example deep learning network system. […] In total, 18 purchasable drugs for RORγt were tested using a cell-based luciferase reporter assay. In this assay, GAL4-RORγt, with fused human RORγt LBD and GAL4 DNA binding domain are co-transfected into HEK293T cells with a luciferase reporter gene harboring the GAL4 response element33.

ADRA2A = target: T2, ADRA2A (Homo sapiens, UniProt P08913); details: published experimental data; cited from earlier work
T2 sequence (P08913 1-465): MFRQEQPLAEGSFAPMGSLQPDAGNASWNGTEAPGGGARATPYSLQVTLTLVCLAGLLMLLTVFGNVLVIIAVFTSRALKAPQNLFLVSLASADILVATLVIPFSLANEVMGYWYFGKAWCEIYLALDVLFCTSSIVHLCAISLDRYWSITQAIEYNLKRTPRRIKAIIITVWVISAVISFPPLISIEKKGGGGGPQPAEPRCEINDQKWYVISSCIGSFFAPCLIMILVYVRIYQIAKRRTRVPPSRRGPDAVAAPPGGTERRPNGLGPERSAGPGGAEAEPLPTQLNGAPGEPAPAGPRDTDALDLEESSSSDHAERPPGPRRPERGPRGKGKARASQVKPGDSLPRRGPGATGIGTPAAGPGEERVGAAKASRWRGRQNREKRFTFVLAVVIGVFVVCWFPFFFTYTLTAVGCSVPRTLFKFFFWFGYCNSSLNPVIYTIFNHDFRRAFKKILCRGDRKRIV

DRD2 = DRD2 (Homo sapiens, UniProt P14416); details: published experimental data; cited from earlier work
Chain of DRD2 (P14416 whole entry): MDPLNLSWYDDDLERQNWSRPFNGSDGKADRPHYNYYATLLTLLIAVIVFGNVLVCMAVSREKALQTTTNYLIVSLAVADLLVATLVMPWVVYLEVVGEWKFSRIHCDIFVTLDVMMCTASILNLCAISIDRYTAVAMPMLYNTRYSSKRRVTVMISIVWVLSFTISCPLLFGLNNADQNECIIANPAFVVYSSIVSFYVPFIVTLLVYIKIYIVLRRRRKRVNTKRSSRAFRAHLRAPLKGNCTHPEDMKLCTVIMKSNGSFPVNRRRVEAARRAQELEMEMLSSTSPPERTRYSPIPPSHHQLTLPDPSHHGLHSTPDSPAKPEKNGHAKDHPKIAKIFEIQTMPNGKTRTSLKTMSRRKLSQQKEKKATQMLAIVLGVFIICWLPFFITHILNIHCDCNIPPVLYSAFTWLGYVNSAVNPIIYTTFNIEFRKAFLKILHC

firefly luciferase = firefly luciferase (Photinus pyralis, UniProt P08659); assay: Control firefly luciferase activity experiment; assay type: cell-based; details: control experiment for promiscuous effects on luciferase
Chain of firefly luciferase (P08659 whole entry): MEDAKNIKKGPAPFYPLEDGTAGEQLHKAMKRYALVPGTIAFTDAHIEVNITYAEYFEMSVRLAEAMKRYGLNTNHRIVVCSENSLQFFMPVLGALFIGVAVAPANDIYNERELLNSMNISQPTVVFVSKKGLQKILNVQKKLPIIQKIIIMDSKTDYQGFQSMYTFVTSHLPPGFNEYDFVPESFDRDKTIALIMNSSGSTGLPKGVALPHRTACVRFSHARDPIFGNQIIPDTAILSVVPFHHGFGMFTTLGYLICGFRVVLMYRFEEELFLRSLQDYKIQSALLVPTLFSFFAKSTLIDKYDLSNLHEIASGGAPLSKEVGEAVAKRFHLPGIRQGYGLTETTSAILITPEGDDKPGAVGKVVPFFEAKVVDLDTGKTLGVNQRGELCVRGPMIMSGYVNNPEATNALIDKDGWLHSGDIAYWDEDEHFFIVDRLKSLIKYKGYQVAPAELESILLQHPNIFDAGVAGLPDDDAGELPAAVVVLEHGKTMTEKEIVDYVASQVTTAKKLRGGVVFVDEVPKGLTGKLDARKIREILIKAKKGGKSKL
Text: (§1) FIG. 7B is a graph showing the inhibitory rate as a function of topotecan concentration. […] FIG. 7C is a graph showing the effect of topotecan on fluorescence intensity. […] FIG. 7D is a graph showing the effect of topotecan on cell viability.

RORγt-LBD [1] = target: T3, RORγt-LBD (Homo sapiens, UniProt P51449); assay: Circular dichroism (CD) spectrum of RORγt; assay type: binding
T3 sequence (P51449 269-508 limits assumed): T1 sequence (P51449 269-508 limits assumed)
Text: FIG. 7F is a graph illustrating how topotecan alters the variation of circular dichroism (CD) spectrum of RORγt. CD is a powerful method for probing protein and ligand interactions in solution. […] FIG. 7G is a graph plotting CD Signal as a function of wavelength. […] FIG. 7H is an illustration showing how topotecan interacts with multiple important residues on human RORγt. The binding mode of topotecan to human RORγt is examined using molecular docking. […] Put together, by combining information gleaned from the deep learning network model and experimental assays, topotecan is identified as a novel, direct inhibitor of human RORγt.

EAE mice = assay: Experimental autoimmune encephalomyelitis (EAE) model; assay type: in vivo, C57BL/6 mice
Experimental: FIG. 8A is a schedule of the application of an experimental autoimmune encephalomyelitis (EAE) model. EAE is a most frequently used experimental animal model for human multiple sclerosis. To investigate the therapeutic potential of topotecan in multiple sclerosis, EAE was induced in C57BL/6 mice by active immunization with […] in complete Freund's adjuvant (CFA) followed by pertussis toxin administration, according to the application schedule shown in FIG. 8A. Topotecan (10 mg/kg) or vehicle (sterile water, control) was administered intraperitoneally every four days during the course of EAE. Disease severity was assessed and graded using a five-point scoring system for 15 days.
During the course of EAE, changes in body weight also reflect disease severity. FIG. 8C is a graph showing weight loss in miss after the application of topotecan during EAE.
Multiple sclerosis is a chronic demyelinating disease accompanied by blood-brain barrier disruption. Near-infrared in vivo imaging is further utilized to evaluate the demyelination and blood-brain barrier leakage in EAE mice. A near-infrared fluorescent dye, 3, 3′-diethylthiatricarbocyanine iodide (DBT), easily enter into the brain and selectively binds to myelin fibers45. […] Cy5.5-BSA, a fluorescent BSA conjugate with bright near infrared fluorescence, penetrates the brain when the blood-brain barrier is disrupted.
T helper 17 (Th17) cells are a highly pro-inflammatory lineage of T helper cells defined by their production of interleukin 17 (IL-17)46. RORγt is necessary and sufficient for cytokine IL-17 expression in mouse and human Th17 cells46. Given the inhibitory effects of topotecan against RORγt, it was investigated whether topotecan affects IL-17 expression in EAE mice.

RORγt = target: T4, RORγt (Mus musculus, UniProt P51450); assay: Target occupancy in mouse brain with tracer T0901317; assay type: in vivo, mice
T4 construct: Concentration of T0901317 in mice brain samples; from tissue; host or cells: mouse brain
T4 sequence (P51450 1-495 isoform P51450-2): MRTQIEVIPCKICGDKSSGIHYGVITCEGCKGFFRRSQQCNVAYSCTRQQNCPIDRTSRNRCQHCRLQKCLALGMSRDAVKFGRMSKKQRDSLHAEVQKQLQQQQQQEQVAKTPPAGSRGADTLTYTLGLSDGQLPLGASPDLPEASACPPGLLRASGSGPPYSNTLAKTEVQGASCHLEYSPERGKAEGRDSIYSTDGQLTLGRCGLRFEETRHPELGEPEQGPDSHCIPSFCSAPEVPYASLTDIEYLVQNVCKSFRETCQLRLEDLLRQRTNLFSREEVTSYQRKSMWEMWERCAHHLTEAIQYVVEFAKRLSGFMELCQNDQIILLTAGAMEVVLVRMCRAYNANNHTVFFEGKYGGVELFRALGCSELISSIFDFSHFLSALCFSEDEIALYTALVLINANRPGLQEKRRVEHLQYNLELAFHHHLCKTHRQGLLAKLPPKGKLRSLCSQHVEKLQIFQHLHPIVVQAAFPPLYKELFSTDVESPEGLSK
Experimental: In the data presented in Table 2, T0901317, an orthosteric ligand of RORγt, was used as the tracer for assessing target occupancy of TPT. A Student's t-test was performed to obtain the p-value, and sterile water was used as vehicle.

HEK293T cells = assay: HEK293T cell viability; assay type: cell-based, human; details: same concentration range as in the reporter assay
Text: as §1

RORγt-LBD [2] = target: T3, RORγt-LBD; assay: HPLC direct interaction with RORγt-LBD; assay type: binding
[3] = tested on: normal cell lines or other mice organs; assay: Toxicity on normal cell lines or mice organs
Text: Accordingly, as predicted by the systems and methods presented herein, topotecan is a good drug candidate in possible treatment of MS.

[4] = Pharmacokinetics after intraperitoneal injection in mice; assay type: in vivo
Text: Where Cmax is the peak concentration, Tmax is the time between administration and reaching Cmax, and t1/2 is the elimination half-life.

RORγt-LBD [5] = target: T3, RORγt-LBD; assay: HTRF coactivator (SRC-1 peptide) recruitment assay; assay type: biochemical; details: read-out: IC50 (disruption of RORγt-LBD interaction with SRC-1 cofactor peptide)
Text: Nuclear receptors execute their versatile transcriptional functions by recruiting positive and negative regulatory proteins, known as coactivators or corepressors, respectively. Agonists promote interactions between nuclear receptors and coactivators, while antagonists either inhibit coactivator binding or facilitate corepressor recruitment. The functional change of the binding of topotecan on RORγt is investigated by utilizing a HTRF assay to evaluate ligand-induced coactivator recruitment to RORγt.
FIG. 7E is another graph showing the inhibitory rate of topotecan as a function of concentration as predicted by an example deep learning network system.

[6] = target: retinoid X receptor α LBD (RXRα-LBD) (Homo sapiens, UniProt P19793); assay: HPLC direct interaction with RXRα-LBD; assay type: binding
Chain of retinoid X receptor α LBD (RXRα-LBD) (P19793 227-458 limits assumed, species assumed): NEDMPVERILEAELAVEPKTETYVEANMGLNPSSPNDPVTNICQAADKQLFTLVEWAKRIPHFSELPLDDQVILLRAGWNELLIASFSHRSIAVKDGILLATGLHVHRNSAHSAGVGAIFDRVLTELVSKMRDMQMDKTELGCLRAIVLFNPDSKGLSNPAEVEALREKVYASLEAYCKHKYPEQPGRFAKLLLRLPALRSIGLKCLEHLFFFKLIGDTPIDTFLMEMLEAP

[7] = at a concentration of 10 μM, GAL4-RORγt HEK293T luciferase reporter, read-out: inhibitory rate
[8] = read-out: inhibitory rate, at a concentration of 10 μM, GAL4-RORγt HEK293T luciferase reporter
[9] = 10 mg/kg intraperitoneally every four days
[10] = mouse, ip, brain, intraperitoneal injection in mice
[11] = mouse, ip, plasma, intraperitoneal injection in mice

In the case of `CC(C)(Oc1ccc(CCNC(=O)c2ccc(Cl)cc2)cc1)C(=O)O` [bezafibrate], the inhibition at 10 µM (human RORγt; [7]) is reported as > 30%.
For `CC(CCc1ccc(O)cc1)NCCc1ccc(O)c(O)c1` (stereo not drawn) [dobutamine], the IC50 (ADRA2A) is listed as 10.8 µM and the IC50 (DRD2) is listed as 8.22 µM.
For `C#C[C@]1(O)CC[C@H]2[C@@H]3CCC4=CC(=O)CC[C@@H]4[C@H]3CC[C@@]21C` [norethindrone], the inhibition at 10 µM (human RORγt; [8]) was > 30%.
For `CN(CCOc1ccc(CC2SC(=O)NC2=O)cc1)c1ccccn1` (stereo not drawn) [rosiglitazone], the inhibition at 10 µM (human RORγt; [7]) was > 30%.
For `CC(=O)S[C@@H]1CC2=CC(=O)CC[C@]2(C)[C@H]2CC[C@@]3(C)[C@@H](CC[C@@]34CCC(=O)O4)[C@H]12` [spironolactone], the inhibition at 10 µM (human RORγt; [8]) was > 30%.
For `CCOC(=O)c1ccc(C#Cc2ccc3c(c2)C(C)(C)CCS3)nc1` [tazarotene], the inhibition at 10 µM (human RORγt; [7]) was > 30%.
For `CC[C@@]1(O)C(=O)OCc2c1cc1n(c2=O)Cc2cc3c(CN(C)C)c(O)ccc3nc2-1` [topotecan], the “suppression of control firefly luciferase activity” value (firefly luciferase) was “no suppression is observed”, the “change of CD spectrum of RORγt (direct binding)” value (RORγt-LBD [1]) was “alters the variation of CD spectrum of RORγt” and the “EAE induced body weight loss” value (EAE mice; [9]) was “more tolerable to EAE induced body weight loss than vehicle-treated mice”. For the same compound, the “onset of clinical symptoms” value (EAE mice; [9]) was “significantly delay in the onset of clinical symptoms”, the clinical score (EAE mice; 10 mg/kg intraperitoneally every four days, five-point scoring) was “observable reduction of clinical score” and the “IL-17 production in brain and spinal cords” value (EAE mice; ELISA) was “significantly reduces IL-17 production”. For the same compound, the “demyelination in white matter (LFB staining)” value (EAE mice; day 20 after immunization) was “demyelination is significantly reversed”, the “infiltration of leukocytes in spinal cord (H&E staining)” value (EAE mice; day 20 after immunization) was “infiltration is largely reduced” and the “DBT near-infrared fluorescence (myelin imaging)” value (EAE mice; near-infrared in vivo imaging) was “reverses fluorescence”. The “accumulation of Cy5.5-BSA fluorescent probe in the brain (blood-brain barrier leakage)” value (EAE mice; near-infrared in vivo imaging) was “higher accumulation of the fluorescent probe in the brain of vehicle treated mice as compared to the topotecan treatment group”, the “Concentration of T0901317 in mice brain samples” value (RORγt; individual mice 1-5, TPT-treated, tracer T0901317, listed as TPT) was 2788.48 ng/g and 4396.96 ng/g and 3365.97 ng/g and 3736.16 ng/g and 3212.96 ng/g and the “Concentration of T0901317 in mice brain samples, Mean” value (RORγt; mean of 5 TPT-treated mice, vehicle mean 4426.55, P-value 0.0029) was 3500.11 ng/g. For the same compound, the “effect on HEK293T cell viability” value (HEK293T cells) was “minor effect”, the “direct interaction by HPLC” value (RORγt-LBD [2]) was “directly interacts with RORγt-LBD” and the “toxicity on normal cell lines or other mice organs” value [3] was “very low toxicity”. For the same compound, the IC50 (human RORγt; GAL4-RORγt expressing HEK293T cells, read-out: IC50 (antagonistic activity)) was 0.43 ± 0.02 µM, the inhibitory rate (human RORγt; at a concentration of 10 μM, GAL4-RORγt HEK293T luciferase reporter, 10 µM) was 71.0% and the brain penetration ([4]; mouse models) was “ideal brain penetration”. It also gave an AUC(0-inf) [4, 10] of 173 ng·h/mL, an AUC(0-t) [4, 10] of 170 ng·h/mL and a Cmax [4, 10] of 121 ng/mL. The Tmax [4, 10] was 30 min, the AUC(0-inf) [4, 11] was 3310 ng·h/mL and the AUC(0-t) [4, 11] was 3280 ng·h/mL. It also gave a Cmax [4, 11] of 3250 ng/mL, a Tmax [4, 11] of 30 min and a half-life [4, 11] of 289 min. For the same compound, the IC50 (RORγt-LBD [5]) was 6.65 ± 0.02 µM and the “direct interaction by HPLC” value [6] was “not with retinoid X receptor α LBD”.
